# Values quoted from earlier work in patent publication US11747352B2 (Concordia University, Inc., priority 2017, dated 2023).
# Read-outs that look alike come from different tables or passages of the source.
# Key:
# [1] = cited from earlier work
# [2] = cited from earlier work; remark: listed apart in the source
structure (smiles),measurement,setting,value
Cc1ccnc2c1NC(=O)c1cccnc1N2C1CC1 [Nevirapine],ORAL BIOAVAILABILITY,[1]; Table CYP3A4,80-94% ^
COc1ccc2c3c1O[C@H]1C(=O)CC[C@H]4[C@@H](C2)N(C)CC[C@]314 [Hydrocodone],HALF LIFE,[2]; in vivo,7 to 9 h
CN(C)CCC=C1c2ccccc2CCc2ccccc21 [Amitriptyline],HALF LIFE,[2]; Table CYP1A2,~13 to 36 h
same,HALF LIFE,[2]; Table CYP2D6,~13 to 36 h
same,ORAL BIOAVAILABILITY,[1]; Table CYP2C9,30-60% ^
same,ORAL BIOAVAILABILITY,[1]; Table CYP2D6,~43-46% ^
CCCCC1=NC2(CCCC2)C(=O)N1Cc1ccc(-c2ccccc2-c2nnn[nH]2)cc1 [Irbesartan],HALF LIFE,[2]; Table CYP2C9,11 to 15 h
same,ORAL BIOAVAILABILITY,[1]; Table CYP2C9,60-80% ^
C=CCc1ccccc1OCC(O)CNC(C)C (centres unmarked) [Alprenolol],HALF LIFE,[2]; Table CYP2D6,2 to 3 h
Nc1c2c(nc3ccccc13)CCCC2 [Tacrine],HALF LIFE,[2]; in vivo,2 to 4 h
Cc1cc(-c2ccccc2)nnc1NCCN1CCOCC1 [Minaprine],HALF LIFE,[2]; Table CYP2D6,2 to 2.5 h
C=C[C@H]1C[N@@]2CC[C@H]1C[C@H]2[C@H](O)c1ccnc2ccc(OC)cc12 [Quinine],ORAL BIOAVAILABILITY,[1]; Table CYP3A4,76-88% ^
O=C(O)Cc1ccccc1Nc1c(Cl)cccc1Cl [Diclofenac],HALF LIFE,[2]; Table CYP2C9,1.9 to 2.2 h
CN1CCN(C2=Nc3cc(Cl)ccc3Nc3ccccc32)CC1 [Clozapine],HALF LIFE,[2]; Table CYP1A2,4 to 66 h
Fc1ccccc1C1=NCC(=S)N(CC(F)(F)F)c2ccc(Cl)cc21 [Quazepam],ORAL BIOAVAILABILITY,[1]; Table CYP3A4,29-35% ^
Cc1cccc(Nc2ccncc2S(=O)(=O)NC(=O)NC(C)C)c1 [Torasemide],HALF LIFE,[2]; Table CYP2C9,2.2 to 3.8 h
CC(N)Cc1ccccc1 (centres unmarked) [Amphetamine],ORAL BIOAVAILABILITY,"[1]; in vivo, po",100%
COc1ccc2c3c1O[C@H]1[C@@H](O)C=C[C@H]4[C@@H](C2)N(C)CC[C@@]341 [Codeine],HALF LIFE,[2]; in vivo,2.5 to 3 h
COc1ccc2c3c1O[C@H]1C(=O)CC[C@@]4(O)[C@@H](C2)N(C)CC[C@]314 [Oxycodone],ORAL BIOAVAILABILITY,[1]; Table CYP2D6,60-87% ^
same,ORAL BIOAVAILABILITY,[1]; Table CYP3A4,60-87% ^
COC(=O)C1=C(C)NC(C)=C(C(=O)OC(C)C)C1c1cccc2nonc12 (centres unmarked) [Isradipine],ORAL BIOAVAILABILITY,"[1]; Table CYP3A4, CR",CR: 15-24% ^
same,ORAL BIOAVAILABILITY,"[1]; Table CYP3A4, IR",IR: 90-95% ^
COc1ccc(C(=O)Nc2ccccc2CCC2CCCCN2C)cc1 (centres unmarked) [Encainide],HALF LIFE,[2]; Table CYP2D6,11.3 h
same,ORAL BIOAVAILABILITY,[1]; Table CYP2D6,25-90% ^
COc1cc(C(C)=O)ccc1OCCCN1CCC(c2noc3cc(F)ccc23)CC1 [Iloperidone],HALF LIFE,[2]; Table CYP2D6,18 to 33 h
O=C(NCC1CCCCN1)c1cc(OCC(F)(F)F)ccc1OCC(F)(F)F (centres unmarked) [Flecainide],ORAL BIOAVAILABILITY,[1]; Table CYP2D6,70-95% ^
CCN1CCC[C@H]1CNC(=O)c1c(OC)ccc(Br)c1OC [Remoxipride],HALF LIFE,[2]; Table CYP2D6,3 to 6 h
CC/C(=C(\c1ccccc1)c1ccc(OCCN(C)C)cc1)c1ccccc1 [Tamoxifen],HALF LIFE,[2]; Table CYP1A2,~120 to 170 h
same,HALF LIFE,[2]; Table CYP2C9,120 to 170 h
same,HALF LIFE,[2]; Table CYP2D6,120 to 170 h
CC(=O)Nc1ccc(O)cc1 [Paracetamol],HALF LIFE,[2]; Table CYP1A2,1 to 4 h
C[C@@H](O[C@H]1OCCN(Cc2n[nH]c(=O)[nH]2)[C@H]1c1ccc(F)cc1)c1cc(C(F)(F)F)cc(C(F)(F)F)c1 [Aprepitant],ORAL BIOAVAILABILITY,[1]; Table CYP3A4,60-65% ^
O=C1NC(=O)C(c2ccccc2)(c2ccccc2)N1 [Phenytoin],HALF LIFE,[2]; Table CYP2C9,14 to 22 h
same,ORAL BIOAVAILABILITY,[1]; Table CYP2C9,20-90% ^
CN[C@@H](C)Cc1ccccc1 [Dextromethamphetamine],HALF LIFE,[2]; Table CYP2D6,12 h
COc1ccc2cccc(CCNC(C)=O)c2c1 [Agomelatine],HALF LIFE,[2]; Table CYP1A2,1 to 2 h
COCCCC/C(=N\OCCN)c1ccc(C(F)(F)F)cc1 [Fluvoxamine],HALF LIFE,[2]; Table CYP1A2,~14 to 16 h
CCC1(c2ccccc2)C(=O)NC(=O)N(C)C1=O (centres unmarked) [Methylphenobarbital],HALF-LIFE,[2]; in vivo,11 to 67 h
[H]/N=C(/N)N/C(=N/[H])NCCc1ccccc1 [Phenformin],HALF LIFE,[2]; Table CYP2D6,4 to 13 h
same,ORAL BIOAVAILABILITY,[1]; Table CYP2D6,40-60% ^
COc1ccc2[nH]cc(CCNC(C)=O)c2c1 [Melatonin],HALF LIFE,[2]; Table CYP1A2,0.583 to 0.833 h
CCCN1CCCC[C@H]1C(=O)Nc1c(C)cccc1C [Ropivacaine],HALF LIFE,[2]; Table CYP1A2,5 to 7 h
same,ORAL BIOAVAILABILITY,"[1]; Table CYP1A2, printed as IV",87-98% - IV
Cc1cc2c(s1)Nc1ccccc1N=C2N1CCN(C)CC1 [Olanzapine],HALF LIFE,[2]; Table CYP1A2,21 to 54 h
CN(C)CCc1c[nH]c2ccc(C[C@H]3COC(=O)N3)cc12 [Zolmirripran],ORAL BIOAVAILABILITY,"[1]; Table of Exemplary Drugs, CYP1A2",~40%
CC[C@@H](c1cccc(O)c1)[C@@H](C)CN(C)C [Tapentadol],HALF LIFE,[2]; Table CYP2C9,4 to 5 h
same,HALF LIFE,[2]; Table CYP2D6,4 to 5 h
Cc1nccn1CC1CCc2c(c3ccccc3n2C)C1=O (centres unmarked) [Ondansetron],HALF LIFE,[2]; Table CYP1A2,3 to 6 h
same,HALF LIFE,[2]; Table CYP2D6,3 to 6.2 h
CN(C/C=C/C#CC(C)(C)C)Cc1cccc2ccccc12 [Terbinafine],HALF LIFE,[2]; Table CYP2C9,22 to 26 h
CCOC(=O)C1=C(COCCN)NC(C)=C(C(=O)OC)C1c1ccccc1Cl (centres unmarked) [Amlodipine],ORAL BIOAVAILABILITY,[1]; Table CYP3A4,64-90% ^
O=C(CCCN1CCC(O)(c2ccc(Cl)cc2)CC1)c1ccc(F)cc1 [Haloperidol],HALF LIFE,[2]; Table CYP1A2,14 to 37 h
same,HALF LIFE,[2]; Table CYP2D6,14 to 37 h
COc1cccc(C2(O)CCCCC2CN(C)C)c1 (centres unmarked) [Tramadol],HALF LIFE,[2]; in vivo,5.5 to 6.7 h
COc1cc(N)c(Cl)cc1C(=O)NC1CCN(CCCOc2ccc(F)cc2)CC1OC (centres unmarked) [Cisapride],ORAL BIOAVAILABILITY,[1]; Table CYP3A4,35-65% ^
CN1CCN2c3ccccc3Cc3ccccc3C2C1 (centres unmarked) [Mianserin],ORAL BIOAVAILABILITY,[1]; Table CYP2D6,20-30% ^
CCOC(=O)C1=C(C)NC(C)=C(C(=O)OC)C1c1cccc(Cl)c1Cl (centres unmarked) [Felodipine],ORAL BIOAVAILABILITY,[1]; Table CYP3A4,13-20% ^
CCN[C@@H](C)Cc1cccc(C(F)(F)F)c1 [Dexfenfluramine],HALF LIFE,[2]; in vivo,17 to 20 h
CSc1ccc2c(c1)N(CCC1CCCCN1C)c1ccccc1S2 (centres unmarked) [Thioridazine],HALF LIFE,[2]; Table CYP2D6,21 to 24 h
CN(C)CCCN1c2ccccc2CCc2ccccc21 [Imipramine],ORAL BIOAVAILABILITY,[1]; Table CYP2D6,94-96% ^
CCOc1cc(CC(=O)N[C@@H](CC(C)C)c2ccccc2N2CCCCC2)ccc1C(=O)O [Repaglinide],ORAL BIOAVAILABILITY,[1]; Table CYP3A4,55%
CC(=O)O[C@H]1C(=O)[C@@]2(C)[C@H]([C@H](OC(=O)c3ccccc3)[C@]3(O)C[C@H](OC(=O)[C@H](O)[C@@H](NC(=O)c4ccccc4)c4ccccc4)C(C)=C1C3(C)C)[C@]1(OC(C)=O)CO[C@@H]1C[C@@H]2O [Paclitaxel],HALF-LIFE,[2]; Table CYP3A4,13.1 to 57.7 h
CCCc1nc(C)c2c(=O)[nH]c(-c3cc(S(=O)(=O)N4CCN(CC)CC4)ccc3OCC)nn12 [Vardenafil],ORAL BIOAVAILABILITY,[1]; Table CYP3A4,15-44% ^
C1CCC(C(CC2CCCCN2)C2CCCCC2)CC1 (centres unmarked) [Perhexiline],HALF LIFE,[2]; Table CYP2D6,12 to 18 h
Fc1ccc([C@@H]2CCNC[C@H]2COc2ccc3c(c2)OCO3)cc1 [Paroxetine],HALF LIFE,[2]; Table CYP2D6,15 to 21 h
CC(CN1c2ccccc2Sc2ccccc21)N(C)C (centres unmarked) [Promethazine],HALF LIFE,[2]; Table CYP2D6,16 to 19 h
CCCC1O[C@@H]2C[C@H]3[C@@H]4CCC5=CC(=O)C=C[C@]5(C)[C@H]4[C@@H](O)C[C@]3(C)[C@]2(C(=O)CO)O1 (some centres unmarked) [Budesonide],ORAL BIOAVAILABILITY,[1]; Table CYP3A4,9-21%^
Cc1nc2n(c(=O)c1CCN1CCC(c3noc4cc(F)ccc34)CC1)CCCC2 [Risperidone],HALF LIFE,[2]; Table CYP2D6,3 to 20 h
CC[C@H]1OC(=O)[C@H](C)[C@@H](O[C@H]2C[C@@](C)(OC)[C@@H](O)[C@H](C)O2)[C@H](C)[C@@H](O[C@@H]2O[C@H](C)C[C@H](N(C)C)[C@H]2O)[C@](C)(O)C[C@@H](C)C(=O)[C@H](C)[C@@H](O)[C@]1(C)O [Erythromycin],ORAL BIOAVAILABILITY,[1]; Table CYP3A4,30-65% ^
CNCC[C@H](Oc1cccc2ccccc12)c1cccs1 [Duloxetine],ORAL BIOAVAILABILITY,[1]; Table CYP2D6,30-80% ^
OCCN1CCN(CCCN2c3ccccc3Sc3ccc(Cl)cc32)CC1 [Perphenazine],HALF LIFE,[2]; Table CYP2D6,9 to 12 h
CN(C)C[C@H]1CCCC[C@]1(O)c1cccc(O)c1 [O-desmethyltramadol],HALF LIFE,[2]; Table CYP2D6,9 h
Cn1c(=O)c2[nH]cnc2n(C)c1=O [Theophylline],HALF LIFE,[2]; Table CYP1A2,1.5 to 9.8 h
COC(=O)N[C@H](C(=O)N[C@@H](Cc1ccccc1)[C@@H](O)CN(Cc1ccc(-c2ccccn2)cc1)NC(=O)[C@@H](NC(=O)OC)C(C)(C)C)C(C)(C)C [Atazanavir],ORAL BIOAVAILABILITY,[1]; Table CYP3A4,60-68% ^
O=C1Nc2ccc(Cl)cc2[C@@](C#CC2CC2)(C(F)(F)F)O1 [Efavirenz],ORAL BIOAVAILABILITY,[1]; Table CYP3A4,40-45% ^
COCCc1ccc(OCC(O)CNC(C)C)cc1 (centres unmarked) [Metoprolol],HALF LIFE,[2]; Table CYP2D6,3 to 7 h
CC(C(=O)O)c1ccc(C(=O)c2cccs2)cc1 (centres unmarked) [Suprofen],HALF LIFE,[2]; Table CYP2C9,2 to 4 h
COc1ccc2c(c1)N(C[C@H](C)CN(C)C)c1ccccc1S2 [Levomepromazine],ORAL BIOAVAILABILITY,[1]; Table CYP2D6,50-60% ^
CN(C)CCC=C1c2ccccc2C=Cc2ccccc21 [Cyclobenzaprine],HALF LIFE,[2]; Table CYP1A2,8 to 37 h
CC(C)C[C@H]1C(=O)N2CCC[C@H]2[C@]2(O)O[C@](NC(=O)[C@@H]3C=C4c5cccc6[nH]c(Br)c(c56)C[C@H]4N(C)C3)(C(C)C)C(=O)N12 [Bromocriptine],ORAL BIOAVAILABILITY,[1]; Table CYP3A4,65-95% ^
CCCCNC(=O)NS(=O)(=O)c1ccc(C)cc1 [Tolbutamide],HALF LIFE,[2]; Table CYP2C9,4.5 to 6.5 h
CO[C@H]1C[C@@H]2CC[C@@H](C)[C@@](O)(O2)C(=O)C(=O)N2CCCC[C@H]2C(=O)O[C@H]([C@H](C)C[C@@H]2CC[C@@H](O)[C@H](OC)C2)CC(=O)[C@H](C)/C=C(\C)[C@@H](O)[C@@H](OC)C(=O)[C@H](C)C[C@H](C)/C=C/C=C/C=C/1C [Sirolimus],ORAL BIOAVAILABILITY,[1]; Table CYP3A4,14-27% ^
CN(CCOc1ccc(CC2SC(=O)NC2=O)cc1)c1ccccn1 (centres unmarked) [Rosiglitazone],HALF LIFE,[2]; Table CYP2C9,3 to 4 h
CN1[C@@H]2CC[C@H]1C[C@@H](OC(=O)c1c[nH]c3ccccc13)C2 [Tropisetron],HALF LIFE,[2]; Table CYP2D6,5.6 to 8.6 h
CCN(CC)CCNC(=O)c1cc(Cl)c(N)cc1OC [Metoclopramide],HALF LIFE,[2]; Table CYP2D6,5 to 6 h
CCC1=C(C)CN(C(=O)NCCc2ccc(S(=O)(=O)NC(=O)N[C@H]3CC[C@H](C)CC3)cc2)C1=O [Glimepiride],HALF LIFE,[2]; Table CYP2C9,5 to 9.2 h
CC(c1cc2ccccc2s1)N(O)C(N)=O (centres unmarked) [Zileuton],HALF LIFE,[2]; Table CYP1A2,2.5 to 3.2 h
COc1ccc2c(c1)[C@]13CCCC[C@@H]1[C@H](C2)N(C)CC3 [Dextromethorphan],HALF LIFE,[2]; in vivo,1.4 to 3.9 h
C#C[C@]1(O)CC[C@H]2[C@@H]3CCc4cc(O)ccc4[C@H]3CC[C@@]21C [Ethinyl Estradiol],ORAL BIOAVAILABILITY,[1]; Table CYP3A4,38-48% ^
